Measured values as given in US9499464B2, “Opsin-binding ligands, compositions and methods of use” (priority 2011, dated 2016).

Legend:
P23H opsin = test: Rhodopsin purification and regeneration (P23H cells treated with compound, regenerated with 9-cis-retinal, 480-500 nm absorbance); details: P23H cells, 48 hours, regeneration with 9-cis-retinal (20 μM)

| Structure (SMILES) | Fold Increase Over Control (480-500 nm absorbance as fold increase over the DMSO control) (P23H opsin; compound concentration 20 μM) | Fold Increase Over Control (480-500 nm absorbance as fold increase over the DMSO control) (P23H opsin; compound concentration 10 μM) | melting point |
| --- | --- | --- | --- |
| CC1(C)CCC[C@@]2(C)C=C(CO)C[C@@H]12 (racemic) [Compound 22, (±)-((3aS,7aS)-3a,7,7-trimethyl-3a,4,5,6,7,7a-hexahydro-1H-inden-2-yl)methanol] | 1.8 fold |  |  |
| CC(C)[C@@H]1C[C@H](O)[C@H]2C(C)(C)CCC[C@@]12C (racemic) [Compound 58, (±)-(1S,3S,3aS,7aS)-3-isopropyl-3a,7,7-trimethyloctahydro-1H-inden-1-ol] | 2.0 fold |  |  |
| CC1(C)CCC[C@@]2(C)C=C[C@H](O)[C@@H]12 (racemic) [Compound 36, (±)-(1S,3aS,7aS)-3a,7,7-trimethyl-3a,4,5,6,7,7a-hexahydro-1H-inden-1-ol] |  | 2.0 fold |  |
| CC1(C)CCC[C@@]2(C)C(=NO)CC[C@@H]12 (racemic) [Compound 33, (±)-(3aS,7aR)-4,4,7a-trimethyloctahydro-1H-inden-1-one oxime] |  | 1.8 fold |  |
| CC1(C)CCC(C)(C)[C@H]2CC(=O)C=C21 [Compound 69a, (+)-4,4,7,7-tetramethyl-5,6,7,7a-tetrahydro-1H-inden-2(4H)-one] | 2.0 fold |  | 35 to 38 °C |
| CC1(C)CCC(C)(C)[C@H]2CC(=O)C[C@H]21 [Compound 70, (3aR,7aS) and (3aS,7aR)-4,4,7,7-tetramethylhexahydro-1H-inden-2(3H)-one] | 1.9 fold |  |  |
| CC(C)(C)C1=CC(=O)[C@H]2C(C)(C)CCC[C@@]12C (racemic) [Compound 43, (±)-(3aR,7aS)-3-tert-butyl-3a,7,7-trimethyl-3a,4,5,6,7,7a-hexahydro-1H-inden-1-one] |  | 1.7 fold |  |
| CC1=CC(=NO)[C@H]2C(C)(C)CCC[C@@]12C (racemic) [Compound 14, (±)-(3aR,7aS)-3,3a,7,7-tetramethyl-3a,4,5,6,7,7a-hexahydro-1H-inden-1-one oxime] | 2.4 fold |  |  |
